Patent US7989212B2, “Detection of blood plasma schizadrin B of dissipating blood stasis botanical” (Shanghai Sundise, priority 2007, dated 2011)

Experiment: UPLC/MS detection of schizadrin B in blood plasma after administration of strengthening body resistance and dissipating blood stasis botanical
Type: in vivo
Settings: plasma of mammals after drenching with the botanical; FIG. 1: rat plasma 0.5 hours after administration; ethyl acetate extraction, UPLC/MS positive ion mode
Method: Detection method of blood plasma schizadrin B of strengthening body resistance and dissipating blood stasis botanical includes the following steps: • (1) Pretreatment of mammalian plasma samples • a. Mammal plasma containing drugs after being administered the strengthening body resistance and dissipating blood stasis botanical was extracted with ethyl acetate at the volume ratio of 1:4, whirling for 3 to 5 min, then centrifuging at 9600 rpm for 10 min; and drying and enriching the supernatant under the condition of 25 to 30° C.; • b. Redissolve eluent with mobile phase and then analyze it with UPLC/MS; • (2) UPLC/MS detection
UPLC condition: chromatographic column: ACQUITY UPLC BEH C18 (a type of chromatographic column), 2.1×100 mm, mobile phase A: Water-Acetonitrile-Formic acid 95:5:0.1 v/v/v, mobile phase B: Acetonitrile-Formic acid 100:0.1 v/v; MS condition: electrospray ionization (ESI) ion source, detection with positive ion mode, scanning at the range of m/z 150 to 1200.
The described step (2) detects with the positive ion mode; the desolvation gas flow is 440 L/h, the desolvation gas temperature is 300° C., the cone gas flow is 50 L/h, the ion source temperature is 100° C., the spray capillary voltage is 3800 V, the sampling cone voltage is 30V, the extracting cone voltage is 2.00 V, the lens voltage is 0.1 V, and the mass scanning at the range of m/z 150 to 1200.
1. […]

SMILES: COc1cc2c(c(OC)c1OC)-c1c(cc3c(c1OC)OCO3)CC(C)C(C)C2 (stereo not shown) [Schizadrin B]
- detection of schizadrin B in blood plasma: can be detected
